# Test results: patent US10882817B2, “Acetylsalicylic acid derivative crystal, its preparation method and use” (Zhejiang Yuejia Pharmaceuticals Co., Ltd, priority 2015, dated 2021)
# Assay: Stability test of 2-(diethylamino)ethyl 2-acetoxybenzoate hydrochloride crystal
# Type: physicochemical
# Details: for pH value / Other related substances / Related substances 2-(diethylamino)ethyl-salicylate hydrochloride / Related substances Acetylsalicylic acid / Related substances Salicylic acid / Content: stored at 25° C.±2° C.; for pH value: 1.0 g sample in 50 mL water, filtrate; for Other related substances / Related substances 2-(diethylamino)ethyl-salicylate hydrochloride / Related substances Acetylsalicylic acid / Related substances Salicylic acid: HPLC; for Content: HPLC external standard method
# Method: The 2-(diethylamino)ethyl 2-acetoxybenzoate hydrochloride crystals obtained in Example 1 is taken and placed under the conditions of 25° C.±2° C., and sampling is carried out at month 0, month 3, month 6, month 9, and month 12, respectively, followed by the detection of the pH value, related substances and their contents. In the process, the pH value is obtained by taking about 1.0 g of a sample, adding 50 mL of water, shaking for 10 minutes, filtration, taking 10 mL of a subsequent filtrate and detection with a pH meter; and the related substances and the contents are both detected by high performance liquid chromatography (an external standard method).
smiles,measurement,setting,value
CCN(CC)CCOC(=O)c1ccccc1OC(C)=O.Cl [2-(diethylamino)ethyl 2-acetoxybenzoate hydrochloride],stability,after having been stored at 25° C.±2° C. for 12 months,very good stability
same,pH value,Month 0,4.82
same,Other related substances,Month 0,Not detected
same,Related substances 2-(diethylamino)ethyl-salicylate hydrochloride,Month 0,0.58%
same,Related substances Acetylsalicylic acid,Month 0,0.0059%
same,Related substances Salicylic acid,Month 0,Not detected
same,Content,Month 0,99.58%
same,pH value,Month 3,4.83
same,Other related substances,Month 3,Not detected
same,Related substances 2-(diethylamino)ethyl-salicylate hydrochloride,Month 3,0.65%
same,Related substances Acetylsalicylic acid,Month 3,0.0063%
same,Related substances Salicylic acid,Month 3,0.00254%
same,Content,Month 3,99.51%
same,pH value,Month 6,4.81
same,Other related substances,Month 6,Not detected
same,Related substances 2-(diethylamino)ethyl-salicylate hydrochloride,Month 6,0.58%
same,Related substances Acetylsalicylic acid,Month 6,0.0070%
same,Related substances Salicylic acid,Month 6,0.00101%
same,Content,Month 6,99.59%
same,pH value,Month 9,4.79
same,Other related substances,Month 9,Not detected
same,Related substances 2-(diethylamino)ethyl-salicylate hydrochloride,Month 9,0.60%
same,Related substances Acetylsalicylic acid,Month 9,0.0048%
same,Related substances Salicylic acid,Month 9,0.00083%
same,Content,Month 9,99.57%
same,pH value,Month 12,4.83
same,Other related substances,Month 12,Not detected
same,Related substances 2-(diethylamino)ethyl-salicylate hydrochloride,Month 12,0.62%
same,Related substances Acetylsalicylic acid,Month 12,0.0053%
same,Related substances Salicylic acid,Month 12,0.00103%
same,Content,Month 12,99.58%
